# In ChEMBL document CHEMBL1201862, “PubChem BioAssay data set” (2004):
# Calls of active or inactive are those of the source.
# Experiments:
# [1] = reduction of Shn3 3'UTR-driven luciferase in osteoblasts – cell-based, Clone20 osteoblasts, firefly luciferase, cherry-picked, dose response (AID 624132); assay type: functional;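 further: firefly luciferase luminescence from reporter carrying the Shn3 3'UTR in osteoblasts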
# [2] = loss of viability in HepG2 cells – cell-based, CellTiter-Glo, cherry-picked, cytotoxicity control for Shn3 inhibitor project, dose response (AID 624134); assay type: functional
# [3] = non-specific 3'UTR reporter inhibition in Clone20-Shn3RL – cell-based, Renilla luciferase, cherry-picked, counter-screen for Shn3 inhibitor project, dose response (AID 624133); assay type: functional
# [4] = Fluorescence-based cell-based high throughput dose response assay for inhibitors of the interaction of nucleotide-binding oligomerization domain containing 2 (NOD2) and the receptor-interacting serine-threonine kinase 2 (RIPK2).; assay type: functional; conditions: Homo sapiens
# [5] = molecular target: Photoreceptor-specific nuclear receptor (Homo sapiens, UniProt Q9Y5X4); assay type: functional, cell-based;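 further: CHO-S cells with Gal4-NCOR and VP16-NR2E3 two-hybrid luciferase reporter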
# Photoreceptor-specific nuclear receptor, sequence (Q9Y5X4 whole entry, the tested form may be a part): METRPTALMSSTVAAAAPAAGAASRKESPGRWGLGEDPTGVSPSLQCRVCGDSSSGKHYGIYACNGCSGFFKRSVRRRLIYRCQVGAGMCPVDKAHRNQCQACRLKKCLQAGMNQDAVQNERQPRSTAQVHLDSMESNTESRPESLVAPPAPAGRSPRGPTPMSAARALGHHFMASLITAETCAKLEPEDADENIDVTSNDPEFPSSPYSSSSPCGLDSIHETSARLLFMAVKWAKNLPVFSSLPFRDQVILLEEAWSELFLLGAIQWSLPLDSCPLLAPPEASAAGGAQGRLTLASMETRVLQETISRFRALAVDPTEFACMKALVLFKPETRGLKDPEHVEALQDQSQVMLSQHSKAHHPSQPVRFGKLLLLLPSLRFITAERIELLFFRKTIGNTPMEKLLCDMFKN
# [6] = molecular target: Nuclear receptor subfamily 5 group A member 2 (Homo sapiens, UniProt O00482); assay type: functional, cell-based;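 further: HEK293T cells transfected with LRH-1 and a StAR promoter luciferase reporter; potency for inhibitors that lower LRH-1 driven reporter light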
# Nuclear receptor subfamily 5 group A member 2, sequence (O00482 whole entry): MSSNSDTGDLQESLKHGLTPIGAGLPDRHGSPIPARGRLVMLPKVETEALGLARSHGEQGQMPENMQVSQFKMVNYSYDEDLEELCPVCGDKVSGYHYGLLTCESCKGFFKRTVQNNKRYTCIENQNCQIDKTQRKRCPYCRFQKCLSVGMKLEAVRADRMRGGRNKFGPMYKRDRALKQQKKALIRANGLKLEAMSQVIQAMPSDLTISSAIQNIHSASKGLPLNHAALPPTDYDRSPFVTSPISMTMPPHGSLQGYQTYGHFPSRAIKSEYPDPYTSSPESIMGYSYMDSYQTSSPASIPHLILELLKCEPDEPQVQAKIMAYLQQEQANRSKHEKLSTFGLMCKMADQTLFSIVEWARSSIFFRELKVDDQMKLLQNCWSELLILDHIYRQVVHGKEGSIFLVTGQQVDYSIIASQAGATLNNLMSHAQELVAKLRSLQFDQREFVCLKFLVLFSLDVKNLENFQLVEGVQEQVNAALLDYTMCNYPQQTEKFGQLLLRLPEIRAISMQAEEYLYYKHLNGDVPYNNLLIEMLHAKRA
# Steroidogenic factor 1 = Steroidogenic factor 1 (Homo sapiens, UniProt Q13285); experiment: Counterscreen for inverse agonists of the liver receptor homolog-1 (LRH-1; NR5A2): Luminescence-based cell-based high throughput dose response assay to identify inverse agonists of the Steroidogenic Factor 1 Nuclear Receptor (SF1; NR5A1).; assay type: functional
# Steroidogenic factor 1, sequence (Q13285 whole entry): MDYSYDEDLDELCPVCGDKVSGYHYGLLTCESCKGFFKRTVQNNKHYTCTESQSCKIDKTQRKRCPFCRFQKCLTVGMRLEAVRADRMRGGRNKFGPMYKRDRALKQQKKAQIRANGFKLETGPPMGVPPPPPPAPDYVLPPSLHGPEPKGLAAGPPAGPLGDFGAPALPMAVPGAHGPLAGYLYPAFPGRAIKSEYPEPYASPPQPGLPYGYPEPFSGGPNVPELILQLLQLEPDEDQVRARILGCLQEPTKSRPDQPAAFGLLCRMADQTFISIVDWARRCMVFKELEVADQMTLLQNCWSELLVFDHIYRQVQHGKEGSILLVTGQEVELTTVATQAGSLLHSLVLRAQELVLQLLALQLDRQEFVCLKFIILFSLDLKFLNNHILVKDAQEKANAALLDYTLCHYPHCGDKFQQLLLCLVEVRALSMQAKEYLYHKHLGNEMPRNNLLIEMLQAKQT
# [7] = nonselective StAR promoter luciferase inhibitors – cell-based, luminescence, luciferase reporter, counter-screen for LRH-1 inverse agonist project, dose response (AID 651969); assay type: functional
# [8] = molecular target: T1, Apoptotic protease-activating factor 1 (Homo sapiens, UniProt O14727); experiment: SAR analysis of small molecule Activators of Apaf-1 in a Fluorescent assay.; assay type: functional; conditions: read-out: EC50_Mean;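 further: caspase-3 cleavage of fluorogenic Rh110 DEVD substrate downstream of apoptosome activation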
# T1 sequence (O14727 whole entry): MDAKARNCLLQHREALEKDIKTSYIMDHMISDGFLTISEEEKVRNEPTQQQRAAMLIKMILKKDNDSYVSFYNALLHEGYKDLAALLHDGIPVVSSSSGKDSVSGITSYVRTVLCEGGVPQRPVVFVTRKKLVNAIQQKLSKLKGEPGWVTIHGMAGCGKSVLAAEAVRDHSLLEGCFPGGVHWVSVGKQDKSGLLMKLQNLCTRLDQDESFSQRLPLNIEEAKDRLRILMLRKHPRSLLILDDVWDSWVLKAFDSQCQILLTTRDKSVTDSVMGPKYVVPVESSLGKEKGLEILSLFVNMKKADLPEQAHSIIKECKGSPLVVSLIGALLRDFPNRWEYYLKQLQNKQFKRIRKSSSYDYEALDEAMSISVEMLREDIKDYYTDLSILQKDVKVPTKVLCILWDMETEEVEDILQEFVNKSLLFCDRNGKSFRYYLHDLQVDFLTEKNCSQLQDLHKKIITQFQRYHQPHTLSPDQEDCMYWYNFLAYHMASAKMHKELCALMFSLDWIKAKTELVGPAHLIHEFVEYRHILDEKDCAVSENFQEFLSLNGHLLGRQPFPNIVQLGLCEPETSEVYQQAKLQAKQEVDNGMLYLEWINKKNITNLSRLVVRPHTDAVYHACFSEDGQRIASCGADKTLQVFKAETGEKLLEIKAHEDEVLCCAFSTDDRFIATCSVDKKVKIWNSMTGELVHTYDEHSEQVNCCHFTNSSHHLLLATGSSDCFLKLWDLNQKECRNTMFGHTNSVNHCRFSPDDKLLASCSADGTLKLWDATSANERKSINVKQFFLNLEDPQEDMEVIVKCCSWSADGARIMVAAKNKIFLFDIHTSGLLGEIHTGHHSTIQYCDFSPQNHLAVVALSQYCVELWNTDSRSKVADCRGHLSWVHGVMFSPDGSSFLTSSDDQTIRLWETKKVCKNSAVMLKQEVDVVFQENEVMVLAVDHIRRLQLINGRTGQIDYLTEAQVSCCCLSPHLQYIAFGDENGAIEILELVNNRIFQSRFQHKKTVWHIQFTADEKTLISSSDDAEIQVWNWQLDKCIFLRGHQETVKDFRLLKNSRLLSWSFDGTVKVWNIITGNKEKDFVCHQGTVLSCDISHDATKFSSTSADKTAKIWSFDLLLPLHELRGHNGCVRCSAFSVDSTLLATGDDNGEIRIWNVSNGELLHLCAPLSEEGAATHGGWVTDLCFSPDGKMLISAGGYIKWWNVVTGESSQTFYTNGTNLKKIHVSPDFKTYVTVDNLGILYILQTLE
# [9] = molecular target: T2, Low molecular weight phosphotyrosine protein phosphatase (Homo sapiens, UniProt P24666); assay type: functional; conditions: read-out: IC50_Mean
# T2 sequence (P24666 whole entry): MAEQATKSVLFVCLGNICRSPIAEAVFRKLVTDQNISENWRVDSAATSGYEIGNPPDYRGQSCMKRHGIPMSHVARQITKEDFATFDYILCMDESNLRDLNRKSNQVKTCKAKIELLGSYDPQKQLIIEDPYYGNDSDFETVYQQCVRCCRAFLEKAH
# [10] = molecular target: T2, Low molecular weight phosphotyrosine protein phosphatase; assay type: functional; conditions: read-out: IC50_Mean; remark: listed apart in the source
Structure (SMILES),EC50 [8],IC50 [6],IC50 (Steroidogenic factor 1),IC50 [7],further results
CC(C)(C)NCC(=Cc1ccccc1)C(=O)c1ccccc1,,,,,AC50 [1]: 4.51 µM (active); AC50 [2]: 11.1 µM (active); AC50 [3]: 6.44 µM (active); IC50 [4]: 10.4 µM (inactive); IC50 [5]: 2.91 µM (active)
Cc1cc(=O)oc2c(C)c(OCC(=O)NC3CC(C)(C)NC(C)(C)C3)ccc12,,35.9 µM (inactive),35.9 µM (inactive),35.9 µM (inactive),
C/C(=N\Nc1cc(C(F)(F)F)ccc1Cl)c1ccncc1,,26.2 µM (inactive),12 µM (inactive),35.9 µM (inactive),
O=C(N/N=C/c1ccc(OC(=O)c2cccc(F)c2)cc1)c1cccnc1,,,,,IC50 [9]: 14.4 µM (active); IC50 [10]: 15.4 µM (active)

# The next lines start with results.
EC50 [8],Structure (SMILES),IC50 [6],IC50 (Steroidogenic factor 1),IC50 [7],further results
> 100 µM (inactive),CN1c2ccccc2C(C)(C)C12CC(c1ccc(F)cc1)=NO2 (stereo not given),,,,
> 100 µM (inactive),N[C@@H](CCc1ccccc1)C(=O)O [HOMOPHENYLALANINE],,,,
